# Reference: the supplement of paper PMC10307832
# Legend:
# Assay in all cases: relative viability (nuclei count vs DMSO), 5 days (fraction); higher = more cells survive
# LXF-289 = system: LXF-289
# How it was run: (§1)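 Lung cancer cell lines were seeded in 1536-well plates and dosed by pin tool the next day, with either a single drug or a fixed anchor-drug dose combined with five library-drug doses (not always all listed) spaced in √10 steps. Five days later, one step fixed the cells and stained their nuclei (final 0.05% Triton X-100, 1% formaldehyde, 1 ug/ml Hoechst), and nuclei were counted on 4× images. Relative viability is the nuclei count in treated wells divided by the count in vehicle wells, and each value is the median of duplicate plates.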
# NCI-H460 = system: NCI-H460
# How it was run: as §1
# NCI-H1734 = system: NCI-H1734
# How it was run: as §1
# 201T = system: 201T
# How it was run: as §1
# NCI-H1437 = system: NCI-H1437
# How it was run: as §1
# NCI-H1651 = system: NCI-H1651
# How it was run: as §1
# H3255 = system: H3255
# How it was run: as §1
# NCI-H23 = system: NCI-H23
# How it was run: as §1
# SW 900 = system: SW 900
# How it was run: as §1
# NCI-H441 = system: NCI-H441
# How it was run: as §1
# CAL-12T = system: CAL-12T
# How it was run: as §1
# EMC-BAC-2 = system: EMC-BAC-2
# How it was run: as §1
# UMC-11 = system: UMC-11
# How it was run: as §1
# NCI-H2342 = system: NCI-H2342
# How it was run: as §1
# ChaGo-K-1 = system: ChaGo-K-1
# How it was run: as §1
# NCI-H838 = system: NCI-H838
# How it was run: as §1
# NCI-H2085 = system: NCI-H2085
# How it was run: as §1
# NCI-H1975 = system: NCI-H1975
# How it was run: as §1
# HOP-62 = system: HOP-62
# How it was run: as §1
# NCI-H1755 = system: NCI-H1755
# How it was run: as §1
# NCI-H2405 = system: NCI-H2405
# How it was run: as §1
# NCI-H2347 = system: NCI-H2347
# How it was run: as §1
# NCI-H2023 = system: NCI-H2023
# How it was run: as §1
smiles,measurement,setting,value
C=C1C(=O)O[C@@H](CCCCCCCC)[C@@H]1C(=O)O [C-75] + CC(=O)Nc1cccc(-n2c(=O)n(C3CC3)c(=O)c3c(Nc4ccc(I)cc4F)n(C)c(=O)c(C)c32)c1 [Trametinib] (partner 0.02 µM),relative viability,LXF-289; first compound 0.08 µM,0.646
same,relative viability,LXF-289; first compound 0.253 µM,0.683
same,relative viability,LXF-289; first compound 0.8 µM,0.657
same,relative viability,LXF-289; first compound 2.53 µM,0.664
same,relative viability,LXF-289; first compound 8 µM,0.672
same,relative viability,NCI-H460; first compound 0.08 µM,0.215
same,relative viability,NCI-H460; first compound 0.253 µM,0.178
same,relative viability,NCI-H460; first compound 0.8 µM,0.123
same,relative viability,NCI-H460; first compound 2.53 µM,0.104
same,relative viability,NCI-H460; first compound 8 µM,0.151
same,relative viability,NCI-H1734; first compound 0.08 µM,0.664
same,relative viability,NCI-H1734; first compound 0.253 µM,0.78
same,relative viability,NCI-H1734; first compound 0.8 µM,0.664
same,relative viability,NCI-H1734; first compound 2.53 µM,0.524
same,relative viability,NCI-H1734; first compound 8 µM,0.691
same,relative viability,201T; first compound 0.08 µM,0.716
same,relative viability,201T; first compound 0.253 µM,0.824
same,relative viability,201T; first compound 0.8 µM,0.731
same,relative viability,201T; first compound 2.53 µM,0.692
same,relative viability,201T; first compound 8 µM,0.763
same,relative viability,NCI-H1437; first compound 0.08 µM,0.514
same,relative viability,NCI-H1437; first compound 0.253 µM,0.699
same,relative viability,NCI-H1437; first compound 0.8 µM,0.454
same,relative viability,NCI-H1437; first compound 8 µM,0.586
same,relative viability,NCI-H1651; first compound 0.08 µM,0.815
same,relative viability,NCI-H1651; first compound 0.253 µM,0.802
same,relative viability,NCI-H1651; first compound 0.8 µM,0.862
same,relative viability,NCI-H1651; first compound 2.53 µM,0.515
same,relative viability,NCI-H1651; first compound 8 µM,0.892
same,relative viability,H3255; first compound 0.08 µM,0.66
same,relative viability,H3255; first compound 0.253 µM,0.613
same,relative viability,H3255; first compound 0.8 µM,0.647
same,relative viability,H3255; first compound 2.53 µM,0.543
same,relative viability,H3255; first compound 8 µM,0.666
same,relative viability,NCI-H23; first compound 0.08 µM,0.361
same,relative viability,NCI-H23; first compound 0.253 µM,0.436
same,relative viability,NCI-H23; first compound 0.8 µM,0.343
same,relative viability,NCI-H23; first compound 2.53 µM,0.291
same,relative viability,NCI-H23; first compound 8 µM,0.321
same,relative viability,SW 900; first compound 0.08 µM,1.01
same,relative viability,SW 900; first compound 0.253 µM,0.936
same,relative viability,SW 900; first compound 0.8 µM,0.848
same,relative viability,SW 900; first compound 2.53 µM,0.71
same,relative viability,SW 900; first compound 8 µM,0.829
same,relative viability,NCI-H441; first compound 0.08 µM,0.569
same,relative viability,NCI-H441; first compound 0.253 µM,0.533
same,relative viability,NCI-H441; first compound 0.8 µM,0.406
same,relative viability,NCI-H441; first compound 8 µM,0.548
same,relative viability,CAL-12T; first compound 0.08 µM,0.373
same,relative viability,CAL-12T; first compound 0.253 µM,0.455
same,relative viability,CAL-12T; first compound 0.8 µM,0.31
same,relative viability,CAL-12T; first compound 2.53 µM,0.301
same,relative viability,CAL-12T; first compound 8 µM,0.313
same,relative viability,EMC-BAC-2; first compound 0.08 µM,0.872
same,relative viability,EMC-BAC-2; first compound 0.253 µM,0.987
same,relative viability,EMC-BAC-2; first compound 0.8 µM,0.853
same,relative viability,EMC-BAC-2; first compound 2.53 µM,0.803
same,relative viability,EMC-BAC-2; first compound 8 µM,0.89
same,relative viability,UMC-11; first compound 0.08 µM,0.723
same,relative viability,UMC-11; first compound 0.253 µM,0.841
same,relative viability,UMC-11; first compound 0.8 µM,0.659
same,relative viability,UMC-11; first compound 2.53 µM,0.581
same,relative viability,UMC-11; first compound 8 µM,0.526
same,relative viability,NCI-H2342; first compound 0.08 µM,0.956
same,relative viability,NCI-H2342; first compound 0.253 µM,0.813
same,relative viability,NCI-H2342; first compound 0.8 µM,0.687
same,relative viability,NCI-H2342; first compound 2.53 µM,0.65
same,relative viability,NCI-H2342; first compound 8 µM,0.917
same,relative viability,ChaGo-K-1; first compound 0.08 µM,0.878
same,relative viability,ChaGo-K-1; first compound 0.253 µM,0.875
same,relative viability,ChaGo-K-1; first compound 0.8 µM,0.819
same,relative viability,ChaGo-K-1; first compound 2.53 µM,0.538
same,relative viability,ChaGo-K-1; first compound 8 µM,0.907
same,relative viability,NCI-H838; first compound 0.08 µM,0.524
same,relative viability,NCI-H838; first compound 0.253 µM,0.292
same,relative viability,NCI-H838; first compound 0.8 µM,0.456
same,relative viability,NCI-H838; first compound 2.53 µM,0.422
same,relative viability,NCI-H838; first compound 8 µM,0.388
same,relative viability,NCI-H2085; first compound 0.08 µM,0.519
same,relative viability,NCI-H2085; first compound 0.253 µM,0.666
same,relative viability,NCI-H2085; first compound 0.8 µM,0.466
same,relative viability,NCI-H2085; first compound 2.53 µM,0.559
same,relative viability,NCI-H2085; first compound 8 µM,0.521
same,relative viability,NCI-H1975; first compound 0.08 µM,0.452
same,relative viability,NCI-H1975; first compound 0.253 µM,0.309
same,relative viability,NCI-H1975; first compound 0.8 µM,0.305
same,relative viability,NCI-H1975; first compound 2.53 µM,0.319
same,relative viability,NCI-H1975; first compound 8 µM,0.41
same,relative viability,HOP-62; first compound 0.08 µM,0.354
same,relative viability,HOP-62; first compound 0.253 µM,0.43
same,relative viability,HOP-62; first compound 0.8 µM,0.358
same,relative viability,HOP-62; first compound 2.53 µM,0.321
same,relative viability,HOP-62; first compound 8 µM,0.359
same,relative viability,NCI-H1755; first compound 0.08 µM,0.763
same,relative viability,NCI-H1755; first compound 0.253 µM,0.748
same,relative viability,NCI-H1755; first compound 0.8 µM,0.76
same,relative viability,NCI-H1755; first compound 2.53 µM,0.677
same,relative viability,NCI-H1755; first compound 8 µM,0.702
same,relative viability,NCI-H2405; first compound 0.08 µM,0.635
same,relative viability,NCI-H2405; first compound 0.253 µM,0.47
same,relative viability,NCI-H2405; first compound 0.8 µM,0.691
same,relative viability,NCI-H2405; first compound 2.53 µM,0.575
same,relative viability,NCI-H2405; first compound 8 µM,0.784
same,relative viability,NCI-H2347; first compound 0.08 µM,0.296
same,relative viability,NCI-H2347; first compound 0.253 µM,0.193
same,relative viability,NCI-H2347; first compound 0.8 µM,0.317
same,relative viability,NCI-H2347; first compound 2.53 µM,0.26
same,relative viability,NCI-H2347; first compound 8 µM,0.365
same,relative viability,NCI-H2023; first compound 0.08 µM,0.527
same,relative viability,NCI-H2023; first compound 0.253 µM,0.662
same,relative viability,NCI-H2023; first compound 0.8 µM,0.531
same,relative viability,NCI-H2023; first compound 2.53 µM,0.209
same,relative viability,NCI-H2023; first compound 8 µM,0.483
